US12343350B2, “Istaroxime-containing intravenous formulation for the treatment of acute heart failure (AHF)” (Windtree Therapeutics, Inc., priority 2019, dated 2025)
Structures can show the parent of a compound that is named as a salt. Where two headings read alike, the source gives them in different places. Marks after values point to notes of the source that are not given here.

Assays:
SERCA2a [1] = details: previous studies; cited from earlier work
[2] = death due mainly to arrhythmias; cited from earlier work
dog renal Na,K-ATPase = dog renal Na,K-ATPase (Canis lupus familiaris (Dog) (Canis familiaris), UniProt P50997); assay: Inhibition of dog renal Na,K-ATPase activity (32P-ATP); format: biochemical
Experimental: Kidneys were sliced and the outer medulla was dissected, pooled and suspended (1 g/10 ml) in a sucrose-histidine solution, containing 250 mM sucrose, 30 mM histidine and 5 mM EDTA, pH 7.2 and homogenized. The homogenate was centrifuged at 6.000 g for 15 min, the supernatant was decanted and centrifuged at 48.000 g for 30 min. The pellet was suspended in the sucrose-histidine buffer and incubated for 20 min with a sodium-dodecyl-sulphate (SDS) solution dissolved in a gradient buffer, containing 25 mM imidazole and 1 mM EDTA, pH 7.5. […] The pellet was suspended in the gradient buffer.
Increasing concentrations of the standard ouabain, or tested compound, were incubated with 0.3 μg of purified dog kidney enzyme for 10 min at 37° C. in 120 μl final volume of a medium containing 140 mM NaCl, 3 mM MgCl2, 50 mM Hepes-Tris, 3 mM ATP at a pH 7.5. Then, 10 μl of incubation solution containing 10 mM KCl and 20 nCi of ^32P-ATP (3-10 Ci/mmol, Perkin Elmer) was added, and the reaction was continued for 15 min at 37° C. The reaction was then stopped by acidification with 20% v/v ice-cold perchloric acid. ^32P was separated by centrifugation with activated Charcoal (Norit A, Serva) and the radioactivity was measured. The inhibitory activity was expressed as percent of the control samples carried out in the absence of ouabain or tested compound.

SERCA2a [3] = target: SERCA2a (Canis lupus familiaris (Dog) (Canis familiaris), UniProt O46674); assay: SERCA2a ATPase activity in heart-derived SR microsomes from normal dog; format: biochemical; details: normal dog SR microsomes
Experimental: Male beagle dogs were used for obtaining cardiac tissues for SERCA2a-enriched sarcoplasmic reticulum preparations. Healthy dogs were utilized for obtaining the data in Table 3. Chronic heart failure was induced in dogs by multiple intracoronary microembolizations with polystyrene latex microspheres ([…], Polysciences, Warrington, PA, USA) as described previously (see Sabbah H N et al., Am J Physiol. 1991; 260:H1379-84). The experiments were conducted in the General Pharmacology Department of Sigma-Tau, Rome, Italy.
Left ventricle tissues were dissected, homogenized in 4 volumes of 10 mM NaHCO3 (pH 7), 1 mM PMSF, 10 μg/ml Aprotinin and Leupeptin and centrifuged at 12.000 g for 15 minutes, as described in Nediani C. et al. (J Biol Chem. 1996; 271:19066-73). Supernatants were filtered and centrifuged at 100.000 g for 30 min. Contractile proteins were extracted by suspending the pellets with 0.6 M KCl, 30 mM Histidine, pH 7 and further centrifugation at 100.000 g for 30 min. Final pellets were reconstituted with 0.3 M Sucrose, 30 mM Histidine, pH 7.
SERCA2a activity was measured in vitro as ^32P-ATP hydrolysis at different Ca2^+ concentrations (100 to 3000 nM) in the absence and presence of the tested compounds as described previously (see Micheletti R. et al., Am J Card 2007; 99:24A-32A). Increasing concentrations of each compound (from 0.05 to 300 nM) were pre-incubated with 2 μg of microsomes for 5 min at 4° C. in 80 μl of a solution containing 100 mM KCl, 5 mM MgCl2, 1 μM A23187, 20 mM Tris, pH 7.5. Then, 20 μl of 5 mM Tris-ATP containing 50 nCi of ^32P-ATP (3-10 Ci/mmol, Perkin Elmer) was added. The ATP hydrolysis was continued for 15 min at 37° C. and was stopped by acidification with 100 μl of 20% v/v ice-cold perchloric acid. ^32P was separated by centrifugation with activated charcoal (Norit A, SERVA) and the radioactivity was measured. SERCA2a-dependent activity was identified as the portion of total hydrolytic activity inhibited by 10 μM cyclopiazonic acid (see Seidler N W. et al., J Biol Chem. 1989; 264:17816-23).
Dose-response curves were fitted by using a sigmoidal curve fitting software and the maximal velocity (Vmax) activity and the Kd Ca2^+ were calculated (Synergy Software KaleidaGraph 3.6).
The compounds disclosed herein were tested on SERCA2a ATPase activity prepared from normal and failing dogs in a range of concentrations from […]. The effect has been expressed as % increase of the Vmax activity of a control sample run in the absence of compound. Data are mean & SD, where n indicates the number of experiments.

[4] = Plasma levels of istaroxime and its metabolites in patients (HPLC-MS/MS); format: in vivo, human; details: 24 h infusion of 0.5 or 1 μg/kg/min istaroxime, Caucasian and Chinese patients
Experimental: The quantitative determination of PST 2744 and its metabolite PST 2915 in human plasma was determined by the HPLC-MS/MS method that included a mobile phase of 70:30 acetonitrile/water, 1 mL/L 1M formic acid, and 1 mL/L 5M ammonium acetate. The flow rate was 1 mL/min, and the chromatographic separation was by reversed phase HPLC (Column: SYNERGI 4μ POLAR-RP80A 150×4.6 mm equipped with a Security-guard Phenomenex Polar-RP 4×3 mm). Detection was performed by MS/MS, and the acquisition mode was Multiple Reaction Monitoring (MRM).
The quantitative determination of istaroxime metabolies PST 2922 and PST 3093 in human plasma was also measured by the HPLC-MS/MS method. In this case, the mobile phase was 50:50 H2 O/CH3 CN (v/v) and 500 μL/L 98-100% HCOOH. The flow rate was 1 mL/min and chromatographic separation was done by reversed-phase HPLC (Column: Phenomenex Phenyl hexyl, 150×4.6 mm, equipped with a Phenomenex phenyl propyl guard-cartridge) under isocratic conditions. Detection was performed by MS/MS (376.0→282.0 amu for PST2922, 378.0→284.0 amu for PST 3093 and 362.0→268.0 amu for PST 3418, IS).

[5] = stimulation of cardiac pumping ability; cited from earlier work

Chain of SERCA2a (Canis lupus familiaris (Dog) (Canis familiaris), UniProt O46674) (O46674 whole entry): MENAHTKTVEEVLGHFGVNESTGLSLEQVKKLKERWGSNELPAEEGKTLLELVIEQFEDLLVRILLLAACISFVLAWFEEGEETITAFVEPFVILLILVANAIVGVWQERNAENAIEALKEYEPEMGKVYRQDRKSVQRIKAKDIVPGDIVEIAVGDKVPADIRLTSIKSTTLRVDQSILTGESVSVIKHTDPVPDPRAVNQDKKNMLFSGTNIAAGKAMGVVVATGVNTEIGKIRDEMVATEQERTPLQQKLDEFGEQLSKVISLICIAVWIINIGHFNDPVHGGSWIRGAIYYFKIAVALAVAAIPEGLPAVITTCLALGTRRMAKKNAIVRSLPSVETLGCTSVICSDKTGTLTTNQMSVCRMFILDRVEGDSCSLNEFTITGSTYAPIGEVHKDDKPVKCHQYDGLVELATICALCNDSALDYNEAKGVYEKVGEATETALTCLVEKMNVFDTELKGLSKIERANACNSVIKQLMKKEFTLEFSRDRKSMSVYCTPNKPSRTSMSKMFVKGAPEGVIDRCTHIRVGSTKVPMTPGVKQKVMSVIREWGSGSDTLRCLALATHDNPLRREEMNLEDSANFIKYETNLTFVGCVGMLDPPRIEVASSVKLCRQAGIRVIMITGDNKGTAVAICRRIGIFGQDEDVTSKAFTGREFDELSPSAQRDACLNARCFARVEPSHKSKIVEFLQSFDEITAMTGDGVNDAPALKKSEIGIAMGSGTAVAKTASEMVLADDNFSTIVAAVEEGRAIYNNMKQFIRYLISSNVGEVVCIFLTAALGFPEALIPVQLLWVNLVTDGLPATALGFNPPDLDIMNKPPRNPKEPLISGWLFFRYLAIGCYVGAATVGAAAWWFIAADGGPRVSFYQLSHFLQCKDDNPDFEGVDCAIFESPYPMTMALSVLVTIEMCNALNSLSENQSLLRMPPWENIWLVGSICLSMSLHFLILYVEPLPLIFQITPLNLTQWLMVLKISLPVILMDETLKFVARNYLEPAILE

C[C@H]1O[C@@H](O[C@H]2[C@@H](O)C[C@H](O[C@H]3[C@@H](O)C[C@H](O[C@H]4CC[C@@]5(C)[C@H](CC[C@@H]6[C@@H]5C[C@@H](O)[C@]5(C)[C@@H](C7=CC(=O)OC7)CC[C@]65O)C4)O[C@@H]3C)O[C@@H]2C)C[C@H](O)[C@@H]1O [Digoxin]
SERCA2a activity stimulation (SERCA2a [1]): failed to stimulate | serum concentration threshold above which increased risk of death [2]: 0.9 ng/mL | IC50 (dog renal Na,K-ATPase; purified dog kidney enzyme, 37° C., read-out: IC50, inhibition of dog renal Na,K-ATPase): 180 nM

C[C@]12CCC(=NOCCN)CC1[C@H](O)CC1C2CC[C@]2(C)C(=O)CCC12 (stereo partly drawn) [PST 2915, (E,Z)-3-(2-Aminoethoxyimino)-6beta-hydroxyandrostan-17-one hydrochloride]
% increase vs control (Vmax) (SERCA2a [3]; 0.1 nM compound): 11% | % increase vs control (Vmax) (SERCA2a [3]; 10 nM compound): 16* % | plasma concentration course during the infusion period [4]: continue to accumulate | IC50 (dog renal Na,K-ATPase): 2100 nM

COC(=O)N1CCN(Cc2cccc(NC(=O)Nc3ccc(C)nc3)c2F)CC1 [omecamtiv]
plasma levels of Hs TnT [5]: associated with an increase
